Results on 27 compounds are retold here after patent US20250129067A1 (Progentos Therapeutics, Inc., priority 2021, published 2025).

In one data set the target is PDGFRα (Homo sapiens (Human), UniProt P16234). The data set can be described thus: PDGFRα kinase enzyme assay (Promega PDGFRα Kinase Enzyme System, ADP-Glo). It counts as biochemical. The following applies: 11-point dose response, 10,000 nM to 0.169 nM, 150 uM ATP, BLQ = below limit of quantitation; for IC50: read-out: IC50 Values on PDGFRα Kinase Inhibition, IC50. The essentials:
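Read-out was ADP-Glo: remaining ATP depleted, ADP converted to luminescence and compared with a standard curve.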

Data set [1] deals with Oligodendrocyte progenitor cells (OPCs). The data set can be described thus: In vitro OPC differentiation assay, GPR17 expression (immunocytochemistry). The settings on record: 72 hours, fold change over vehicle; for GPR17 Fold Induction (Over Vehicle; 3 μM): 3 μM (10× concentration, final 0.3 μM); for GPR17 Fold Induction (Over Vehicle; 5 μM): 5 μM (10× concentration, final 0.5 μM).
Description: To assess the effects of the PDGFRα inhibitors on OPC differentiation, primary OPCs were cultured and exposed to compounds. The number of newly generated oligodendrocytes was assessed by monitoring GPR17 expression. GPR17 is preferentially expressed in actively differentiating oligodendrocytes, allowing them to be distinguished from precursors and more differentiated oligodendrocytes.
Cortices from postnatal day (P) 1-3 rats were dissected and collected into ice cold Hank's Balanced Salt Solution (HBSS). […] Briefly, the cortical cell suspension was centrifuged and washed with buffer (0.5% BSA in PBS) and labeled with Anti-A2B^5 MicroBeads (10 μL beads per 1×10^7 cells) for 15 minutes at 4° C. Following the incubation, cells were washed once with BSA buffer to remove unlabeled beads. A2B^5 positive cells were eluted on the column using the AutoMACS® (Miltenyi, as per manufacturer's protocol using “Possel-s” program). Eluted cells were further washed twice with OPC growth media. Cell counts were performed using Countess III cell counter (ThermoFisher; AMQAX2000) and cells were plated.
The plates were allowed to sit at room temperature for 15 minutes to ensure proper dispersion of cells in a well. The plates were then transferred to the incubator (37° C.; 5% CO2).
Cells were then incubated for 72 hours at 37° C., 5% CO2 before immunostaining for GPR17 marker expression.
Following 72 hours in culture, cells were fixed with 4% paraformaldehyde for 15 minutes and then washed three times in Dulbecco's phosphate buffered saline (DPBS). Prior to immunostaining, cells were treated with a blocking solution (10% normal goat serum containing 1% BSA and 0.1% Triton® X-100 in DPBS) for 15 minutes at room temperature. Primary antibody (anti-GPR17 at 1:2000; Origene TA811615) was applied to cells overnight at 4° C. in incubation solution containing 1% normal goat serum, 1% BSA, and 0.1% Triton X-100 in DPBS. […] The secondary antibody was applied in incubation solution for 2 hours at room temperature, protected from light.
The number of differentiated GPR17+ cells was normalized to the total nuclei count and percent differentiated GPR17+ cells were reported. Statistical analysis was done using one-way ANOVA with multiple comparisons and post-hoc Tukey test in GraphPad Prism (GraphPad Software).

Sequence of PDGFRα (P16234 24-1089): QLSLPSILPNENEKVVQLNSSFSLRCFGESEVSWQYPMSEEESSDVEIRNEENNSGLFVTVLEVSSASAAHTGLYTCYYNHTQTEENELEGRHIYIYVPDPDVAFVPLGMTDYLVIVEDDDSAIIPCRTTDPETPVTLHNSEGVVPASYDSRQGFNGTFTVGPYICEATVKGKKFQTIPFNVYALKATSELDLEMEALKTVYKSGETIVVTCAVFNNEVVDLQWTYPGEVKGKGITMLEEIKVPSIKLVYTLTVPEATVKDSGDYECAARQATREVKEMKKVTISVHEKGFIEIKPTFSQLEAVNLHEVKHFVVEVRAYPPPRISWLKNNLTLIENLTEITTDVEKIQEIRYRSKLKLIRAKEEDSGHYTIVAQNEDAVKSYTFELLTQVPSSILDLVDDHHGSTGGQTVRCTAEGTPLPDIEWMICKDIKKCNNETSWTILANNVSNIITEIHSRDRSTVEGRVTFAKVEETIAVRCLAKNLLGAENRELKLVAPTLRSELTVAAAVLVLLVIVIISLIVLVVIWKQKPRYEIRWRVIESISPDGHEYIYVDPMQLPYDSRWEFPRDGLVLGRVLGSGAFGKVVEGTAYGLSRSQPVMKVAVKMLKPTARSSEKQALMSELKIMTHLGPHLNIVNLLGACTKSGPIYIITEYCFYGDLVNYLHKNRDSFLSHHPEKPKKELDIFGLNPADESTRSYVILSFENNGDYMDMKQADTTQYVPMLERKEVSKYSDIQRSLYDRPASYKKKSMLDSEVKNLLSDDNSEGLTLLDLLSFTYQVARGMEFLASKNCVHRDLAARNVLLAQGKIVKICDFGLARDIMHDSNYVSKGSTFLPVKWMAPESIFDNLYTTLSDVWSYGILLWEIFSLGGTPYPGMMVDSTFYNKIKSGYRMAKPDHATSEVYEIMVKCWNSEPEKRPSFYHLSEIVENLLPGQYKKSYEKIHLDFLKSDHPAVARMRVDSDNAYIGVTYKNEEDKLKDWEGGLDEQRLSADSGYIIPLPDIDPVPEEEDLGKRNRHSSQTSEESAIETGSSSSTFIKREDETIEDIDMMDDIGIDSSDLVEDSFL

Take `CC(C)(C)OC(=O)N1CCCN(c2cnc3nc(C4CCOC4)ccn23)CC1` (centres unmarked) [Compound 107, tert-butyl 4-(7-(tetrahydrofuran-3-yl)imidazo[1,2-a]pyrimidin-3-yl)-1,4-diazepane-1-carboxylate]: at PDGFRα, the IC50 is more than 10 µM. In data set [1], the “GPR17 Fold Induction (Over Vehicle; 3 μM)” value is 0.58.

`Cn1cc(-c2ccc3c(N4CCN(c5ncc(Cc6ccccc6)cn5)C(=O)C4)cnn3c2)cn1` [Compound 144, 1-(5-benzylpyrimidin-2-yl)-4-(6-(1-methyl-1H-pyrazol-4-yl)pyrazolo[1,5-a]pyridin-3-yl)piperazin-2-one]: the IC50 on PDGFRα came to 4.53 µM. The “GPR17 Fold Induction (Over Vehicle; 3 μM)” value in data set [1] is recorded as 2.64.

For `CC(C)(C)OC(=O)N1CCN(c2cnn3cc(-c4cn(CCCN5CCOCC5)cn4)ccc23)CC1` [Compound 231, tert-butyl 4-(6-(1-(3-morpholinopropyl)-1H-imidazol-4-yl)pyrazolo[1,5-a]pyridin-3-yl)piperazine-1-carboxylate], the IC50 at PDGFRα came out at 0.395 µM. For the same compound, the “GPR17 Fold Induction (Over Vehicle; 3 μM)” value in data set [1] is listed as 9.34.

As to `CN(CCN(C)c1cnn2cc(-c3cnn(C)c3)ccc12)c1ncc(Cc2ccccc2)cn1` [Compound 127, N^1-(5-benzylpyrimidin-2-yl)-N^1,N^2-dimethyl-N^2-(6-(1-methyl-1H-pyrazol-4-yl)pyrazolo[1,5-a]pyridin-3-yl)ethane-1,2-diamine], the IC50 at PDGFRα was more than 10 µM. For the same compound, in data set [1], the “GPR17 Fold Induction (Over Vehicle; 3 μM)” value is reported as 1.36.

Turning to `Cn1cc(-c2ccn3c(N4CCCN(C(=O)NCc5ccc(C(F)(F)F)cc5)CC4)cnc3n2)cn1` [Compound 120, 4-(7-(1-methyl-1H-pyrazol-4-yl)imidazo[1,2-a]pyrimidin-3-yl)-N-(4-(trifluoromethyl)benzyl)-1,4-diazepane-1-carboxamide], the IC50 at PDGFRα was more than 10 µM. The “GPR17 Fold Induction (Over Vehicle; 3 μM)” value in data set [1] was found to be 0.87.

`COCCn1cnc(-c2ccc3c(N4CCN(C(=O)OC(C)(C)C)CC4)cnn3c2)c1` [Compound 227, tert-butyl 4-(6-(1-(2-methoxyethyl)-1H-imidazol-4-yl)pyrazolo[1,5-a]pyridin-3-yl)piperazine-1-carboxylate]: the IC50 at PDGFRα was 0.268 µM. Also, the “GPR17 Fold Induction (Over Vehicle; 3 μM)” value in data set [1] is reported as 9.02.

Take `CN(C)CCn1cc(-c2ccc3c(N4CCN(c5ncc(Cc6ccccc6)cn5)CC4)cnn3c2)cn1` [Compound 43, 2-(4-{3-[4-(5-benzylpyrimidin-2-yl)piperazin-1-yl]pyrazolo[1,5-a]pyridin-6-yl}-1H-pyrazol-1-yl)-N,N-dimethylethanamine]: at PDGFRα, the IC50 is 0.385 µM. For the same compound, in data set [1], the “GPR17 Fold Induction (Over Vehicle; 3 μM)” value is listed as 12.48 and the “GPR17 Fold Induction (Over Vehicle; 5 μM)” value came to 6.92.

For `Cn1cc(-c2cc3ncc(N4CCN(C(=O)NCc5ccc(C(F)(F)F)cc5)CC4)n3cn2)cn1` [Compound 118, 4-(7-(1-methyl-1H-pyrazol-4-yl)imidazo[1,2-c]pyrimidin-3-yl)-N-(4-(trifluoromethyl)benzyl)piperazine-1-carboxamide], the IC50 at PDGFRα was more than 10 µM. Also, in data set [1], the “GPR17 Fold Induction (Over Vehicle; 3 μM)” value amounted to 0.93.

Consider `Cn1cc(-c2ccc3c(N4CCN(c5ncc(CC6CCCCC6)cn5)CC4)cnn3c2)cn1` [Compound 62, 3-{4-[5-(cyclohexylmethyl)pyrimidin-2-yl]piperazin-1-yl}-6-(1-methyl-1H-pyrazol-4-yl)pyrazolo[1,5-a]pyridine], for which, on PDGFRα, the IC50 turned out to be 0.415 µM. Moreover, the “GPR17 Fold Induction (Over Vehicle; 3 μM)” value in data set [1] is 6.53.

Consider `CC1CN(C(=O)OC(C)(C)C)CCN1c1cnn2cc(-c3cnn(C)c3)ccc12` (centres unmarked) [Compound 240, tert-butyl 3-methyl-4-(6-(1-methyl-1H-pyrazol-4-yl)pyrazolo[1,5-a]pyridin-3-yl)piperazine-1-carboxylate], for which, at PDGFRα, the IC50 is 9.41 µM. Besides, the “GPR17 Fold Induction (Over Vehicle; 3 μM)” value in data set [1] was 4.67.

In the case of `CC(C)(C)OC(=O)N1CCN(c2cnn3cc(-c4ccccn4)ccc23)CC1` [Compound 216, tert-butyl 4-[6-(pyridin-2-yl)pyrazolo[1,5-a]pyridin-3-yl]piperazine-1-carboxylate], at PDGFRα, the IC50 stood at 1 µM. The “GPR17 Fold Induction (Over Vehicle; 3 μM)” value in data set [1] amounted to 1.92.

For the compound `CC1CN(c2ncc(Cc3ccccc3)cn2)CCN1c1cnn2cc(-c3cnn(C)c3)ccc12` (centres unmarked) [Compound 142, 3-(4-(5-benzylpyrimidin-2-yl)-2-methylpiperazin-1-yl)-6-(1-methyl-1H-pyrazol-4-yl)pyrazolo[1,5-a]pyridine], on PDGFRα, the IC50 worked out at 9.54 µM. Further, the “GPR17 Fold Induction (Over Vehicle; 3 μM)” value in data set [1] is 5.85.

As for `C[C@@H](OC(=O)N1CCN(c2cnn3cc(-c4cnn(C)c4)ccc23)CC1)C1CCCCC1` [Compound 57, (1R)-1-cyclohexylethyl 4-[6-(1-methyl-1H-pyrazol-4-yl)pyrazolo[1,5-a]pyridin-3-yl]piperazine-1-carboxylate], at PDGFRα, the IC50 was determined as 5.58 µM. Besides, the “GPR17 Fold Induction (Over Vehicle; 3 μM)” value in data set [1] is 5.28.

Take `Cn1cc(-c2ccn3c(N4CCCN(c5ncc(Cc6ccccc6)cn5)CC4)cnc3n2)cn1` [Compound 122, 3-(4-(5-benzylpyrimidin-2-yl)-1,4-diazepan-1-yl)-7-(1-methyl-1H-pyrazol-4-yl)imidazo[1,2-a]pyrimidine]: the IC50 at PDGFRα is more than 10 µM. In data set [1], the “GPR17 Fold Induction (Over Vehicle; 3 μM)” value was 3.19.

Turning to `Cc1cn(-c2ccn3c(N4CCCN(C(=O)OC(C)(C)C)CC4)cnc3n2)cn1` [Compound 111, tert-butyl 4-(7-(4-methyl-1H-imidazol-1-yl)imidazo[1,2-a]pyrimidin-3-yl)-1,4-diazepane-1-carboxylate], the IC50 at PDGFRα is more than 10 µM. Also, in data set [1], the “GPR17 Fold Induction (Over Vehicle; 3 μM)” value came to 0.60.

In the case of `CC(C)(C)OC(=O)N1CCN(c2cnn3cc(-c4ccc(F)cc4)ccc23)CC1` [Compound 207, tert-butyl 4-(6-(4-fluorophenyl)pyrazolo[1,5-a]pyridin-3-yl)piperazine-1-carboxylate], the IC50 at PDGFRα was 4.83 µM. Also, the “GPR17 Fold Induction (Over Vehicle; 3 μM)” value in data set [1] is 2.24.

Regarding `CC1CN(c2cnn3cc(-c4cnn(C)c4)ccc23)CCN1c1ncc(Cc2ccccc2)cn1` (centres unmarked) [Compound 143, 3-(4-(5-benzylpyrimidin-2-yl)-3-methylpiperazin-1-yl)-6-(1-methyl-1H-pyrazol-4-yl)pyrazolo[1,5-a]pyridine], the IC50 on PDGFRα is 0.616 µM. In addition, the “GPR17 Fold Induction (Over Vehicle; 3 μM)” value in data set [1] was found to be 3.89.

As for `Cn1cc(-c2ccc3c(N4CCN(c5ncc(Cc6cocn6)cn5)CC4)cnn3c2)cn1` [Compound 171, 4-((2-(4-(6-(1-methyl-1H-pyrazol-4-yl)pyrazolo[1,5-a]pyridin-3-yl)piperazin-1-yl)pyrimidin-5-yl)methyl)oxazole], the IC50 on PDGFRα was more than 10 µM. In data set [1], the “GPR17 Fold Induction (Over Vehicle; 3 μM)” value is 5.33.

As to `C[C@@H](NC(=O)N1CCN(c2cnn3cc(-c4cnn(C)c4)ccc23)CC1)c1ccc(C(F)(F)F)cc1` [Compound 288, 4-[6-(1-methyl-1H-pyrazol-4-yl)pyrazolo[1,5-a]pyridin-3-yl]-N-{(1R)-1-[4-(trifluoromethyl)phenyl]ethyl}piperazine-1-carboxamide], the “IC50 Values on PDGFRα Kinase Inhibition, IC50 (nM)” value against PDGFRα is “BLQ”. Moreover, in data set [1], the “GPR17 Fold Induction (Over Vehicle; 3 μM)” value amounted to 5.92.

`COc1ccc2c(N3CCN(c4ncc(Cc5ccccc5)cn4)CC3)cnn2c1` [Compound 259, 3-[4-(5-benzylpyrimidin-2-yl)piperazin-1-yl]-6-methoxypyrazolo-[1,5-a]pyridine]: at PDGFRα, the IC50 was more than 10 µM. In addition, in data set [1], the “GPR17 Fold Induction (Over Vehicle; 3 μM)” value was found to be 2.69.

In the case of `Cn1cc(-c2ccc3c(N4CCN(C(=O)OC5CCOCC5)CC4)cnn3c2)cn1` [Compound 39, tetrahydro-2H-pyran-4-yl 4-[6-(1-methyl-1H-pyrazol-4-yl)pyrazolo[1,5-a]pyridin-3-yl]piperazine-1-carboxylate], at PDGFRα, the 50% inhibitory concentration (IC50) was more than 10 µM. Also, the “GPR17 Fold Induction (Over Vehicle; 3 μM)” value in data set [1] is listed as 1.78.

On to `Cn1cc(-c2ccc3c(N4CCN(c5ncc(CN6CCCCC6)cn5)CC4)cnn3c2)cn1` [Compound 42, 6-(1-methyl-1H-pyrazol-4-yl)-3-{4-[5-(piperidin-1-ylmethyl)pyrimidin-2-yl]piperazin-1-yl}pyrazolo[1,5-a]pyridine], for which the IC50 at PDGFRα is 8.25 µM. In addition, in data set [1], the “GPR17 Fold Induction (Over Vehicle; 3 μM)” value was found to be 10.21 and the “GPR17 Fold Induction (Over Vehicle; 5 μM)” value came to 4.64.

As to `Cn1cc(-c2ccc3c(N4CCN(C5=NCC(c6ccccc6)O5)CC4)cnn3c2)cn1` (centres unmarked) [Compound 56, 6-(1-Methyl-1H-pyrazol-4-yl)-3-[4-(5-phenyl-4,5-dihydro-1,3-oxazol-2-yl)piperazin-1-yl]pyrazolo[1,5-a]pyridine], on PDGFRα, the IC50 turned out to be 1.44 µM. Also, the “GPR17 Fold Induction (Over Vehicle; 3 μM)” value in data set [1] is 4.54.

Consider `CN(CCN(C)c1cnc2nc(C3CCOC3)ccn12)C(=O)OC(C)(C)C` (centres unmarked) [Compound 98], for which, at PDGFRα, the IC50 is more than 10 µM. In addition, the “GPR17 Fold Induction (Over Vehicle; 3 μM)” value in data set [1] came to 0.98.

For `COCCn1cc(-c2ccn3c(N4CCCN(C(=O)OC(C)(C)C)CC4)cnc3n2)cn1` [Compound 105, tert-butyl 4-(7-(1-(2-methoxyethyl)-1H-pyrazol-4-yl)imidazo[1,2-a]pyrimidin-3-yl)-1,4-diazepane-1-carboxylate], the IC50 at PDGFRα was more than 10 µM. Besides, the “GPR17 Fold Induction (Over Vehicle; 3 μM)” value in data set [1] was 0.46.

Turning to `Cn1cc(-c2ccc3c(C4CCC(CCc5ccccc5)CC4)cnn3c2)cn1` (centres unmarked) [Compound 141, 6-(1-methyl-1H-pyrazol-4-yl)-3-(4-phenethylcyclohexyl)pyrazolo[1,5-a]pyridine], the IC50 at PDGFRα is more than 10 µM. Besides, the “GPR17 Fold Induction (Over Vehicle; 3 μM)” value in data set [1] was determined as 1.09.

As for `CC(C)(C)OC(=O)N1CCN(c2cnn3cc(CCCO)ccc23)CC1` [Compound 204, tert-butyl 4-(6-(3-hydroxypropyl)pyrazolo[1,5-a]pyridin-3-yl)piperazine-1-carboxylate], the IC50 on PDGFRα is more than 10 µM. The “GPR17 Fold Induction (Over Vehicle; 3 μM)” value in data set [1] is 1.20.
